This is an account of results in patent publication US20030077740A1, “Presenilin/Crk binding polypeptides (PCBP) and methods of use thereof” (priority 2001, published 2003).

The subject of one experiment is APP695/PBP cells. The experiment can be described thus: protease inhibitors on APP secretion and intracellular accumulation. The class given is cell-based, rat. On the procedure: Cells and transfection: Neuronal cell line B103 (Schubert et al. (1974) Nature, 249, 224-227) was grown in Dulbecco's modified Eagle's medium (DMEM) supplemented with 10% heat-inactivated fetal bovine serum (FBS). B103 cells were transfected with APP695 using G418 selection (Schubert et al. (1989) Neuron, 3: 689-694) and with various plasmids by Lepfectamin2000 (GIBCO; NJ, USA) using puromycin selection for PBP or hygromycin for PS1, respectively. The stably transfected cells were subsequently cloned and screened for protein expression by western blot analysis.
Western blotting, metabolic labeling and immunoprecipitation: For western blotting, cells were washed twice with ice-cold PBS and lysed in lysis buffer (1% Triton, 50 mM Hepes pH 7.5, 50 mM NaCl, 5 mM EDTA, 1 mM Na3VO4, 50 mM NaF, 10 mM Na4P2O7, plus a mixture of protease inhibitors (Complete Mini; Roche, Ind., USA). Protein concentrations were determined by Coomassie Plus (Pierce; IL, USA). The same amount of protein from each sample was separated on Novex pre-cast polyacrylamide gels (Invitrogen; CA, USA), and transferred to Immobulin membranes (Millipore; MA, USA). The membranes were blocked with 5% non-fat milk in Tris-buffered saline for 1 hour at room temperature. Following overnight incubation at 4° C. with primary antibodies, the antigens are detected with horseradish peroxidase-conjugated secondary antibodies (Bio-Rad; CA, USA; 1:20,000), an ECL kit (Amersham; NJ, USA), and exposed to films. For pulse-chase experiments, cells were grown to 80% confluency and incubated in methionine-free DMEM for 90 min. Cells were labeled with [^35]S-methionine (400 μCi/ml in methionine-free DMEM plus 5% dialyzed FBS) for 10 min at 37° C., and the medium was replaced with serum-free DMEM medium plus Ni-supplement (Sigma Inc.; MI, USA). The media were collected and cells were lysed after different time periods. Protein concentrations were determined and the same amounts of proteins were immunoprecipitated with antibodies at 4° C. overnight 25 μl of anti-mouse IgG agarose (Roche) was then added to each sample and incubated at 4° C. for 2 hours on a rocker platform. The immunoprecipitates were collected by centrifugation and washed 4 times with the washing buffer (0.1% Triton, 20 mM Hepes, 150 mM NaCl, 10% glycerol). The agarose beads were resuspended in 30 μl SDS-PAGE sample buffer boiled for 3 min to release the proteins. After 2 min of centrifugation, the supernatants were separated on 8% Tri-glycine gels. The gels were dried and subjected to autoradiography and quantitated by NIH image.
To independently verify the data on APP degradation, the effect of two protease inhibitors, leupeptin and MG132, on the secretion and the intracellular accumulation of APP was studied. Leupeptin is thought to inhibit lysosomal proteases, whereas MG132 is thought to inhibit ER membrane protein degradation through the ubiquitin-proteasome pathway (Soriano et al. (1999) J. Biol. Chem., 274: 32295-32300).

A further experiment addresses T1, PS1 (Homo sapiens, UniProt P49768).
T1 construct: the large hydrophilic loop region of PS1 (amino acids 1-81, 429-468, 263-407, respectively) were inserted into the pGBT9 vector; expressed in transfected cells; host or cells: yeast Y190
Kind of experiment: yeast two-hybrid interaction with PS1. It is filed as binding. Particulars: yeast two-hybrid assay.

The subject of the next experiment is B103 (APP695) cells. The experiment can be described thus: APP secretion by transfected B103 (APP695) cells, Western blotting. It is filed as cell-based, rat. Particulars: overexpression of the protein.
Experiment [1] addresses T2, large hydrophilic loop of PS1 (Homo sapiens, UniProt P49768).
T2 construct: and a large hydrophilic loop (amino acids 263-407); expressed in transfected cells; host or cells: 293T human kidney cells, pCIS2 expression vector
Kind of experiment: co-immunoprecipitation in 293T cells, PS1 loop. To be noted: immunoprecipitation with anti-TAG, 48 hrs after transfection, PS1-FLAG loop. The class given is binding. On the procedure: To confirm the yeast two-hybrid data, the interaction between PBP and PSs was assayed in mammalian cells by immunoprecipitation. Human kidney 293-T cells, and monkey kidney COS-7 cells were cultured in Dulbecco's modified Eagle's medium supplemented with 10% fetal calf serum at 37° C. in a 10% CO2 atmosphere. A nine-amino acid TAG epitope ([…]) (SEQ ID NO:6) was incorporated in-frame at the 3′ end of the PBP cDNA (PBP-TAG), and an eight amino acid FLAG epitope ([…]) (SEQ ID NO:7) was attached in frame at the 5′ end of the large hydrophilic loop of PS1 cDNA and at the 3′ end of full length PS1 cDNA as described previously (Kimura, H., Proc. Natl. Acad. Sci. (USA), 90:2165-2169 (1993)). The resulting fragments were inserted into the pCIS2 expression vector (Genentech, San Francisco, Calif.) for transient or constitutive expression. […]
For immunoprecipitation of the large hydrophilic loop of PSs or Crk with PBP, cells were lysed in RIPA buffer (100 mM NaCl, 0.5% NP-40, 0.5% DOC, 0.1% SDS, 50 mM Tris, pH 7.5, 1 mM PMSF and 1 μg/ml aprotinin, 1 μg/l leupeptin) on ice for 30 min. […] The bound antibodies were detected by the ECL-plus chemiluminescence system (Amersham, Arlington Heights, Ill.).

The next experiment concerns PBP. To be noted: PS fragment fused to GAL4-DNA binding domain, PBPα-GAL4 activation domain, β-galactosidase assay.
[2] abbreviates: 100 μM, either cells, data not shown.

Residues, ends and D or L forms follow the SMILES beside them. *: point of attachment. Cbz = O=C(OCc1ccccc1)*

On to `CC(C)C[C@@H](C=O)NC(=O)[C@H](CC(C)C)NC(=O)[C@H](CC(C)C)NC(=O)OCc1ccccc1` [MG132] (Cbz-Leu-Leu-Leu-aldehyde), for which, in the experiment with APP695/PBP cells (10 μM, APP695/PBP cells), the APP secretion entry is “significantly increased” and the “intracellular accumulation of APP” value is given as “significantly increased”. Moreover, in the experiment with APP695/PBP cells (after 16 hours of treatment), the “secretion of APP in cells expressing PBP” value is given as “almost restored to the control level”.

Take `CC(=O)N[C@@H](CC(C)C)C(=O)N[C@@H](CC(C)C)C(=O)N[C@H](C=O)CCCNC(=N)N` [leupeptin]: in the experiment with APP695/PBP cells (setting [2]), the APP secretion entry is given as “no effect” and the “intracellular accumulation of APP” value is on record as “no effect”.

Consider “Dock 180: protein 40% homologous to PBP, has a SH3 domain and interacts with Crk [reference compound]”, for which, in the experiment with PS1, the “functional interaction with PS1” value is “nor did it functionally interact”. Moreover, the “secretion of APP” value in the experiment with B103 (APP695) cells is on record as “not affected”. Further, the “interaction with PS1” value in experiment [1] was “did not show any interaction”.

For EERGVKLGLGDFIFYSVLVGKA [consensus], the “interaction with PBP” value with PBP is “exhibit an interaction”.
